The source of these data is patent US20170066759A1, “AROMATIC 5-MEMBERED HETEROCYCLIC DERIVATIVE HAVING TRPV4-INHIBITING ACTIVITY” (Shionogi & Co., Ltd., priority 2012, published 2017).

Usually Ki stands for the dissociation constant of the complex between target and ligand, obtained from inhibition or displacement. One may read the IC50 as the midpoint of a concentration-inhibition curve.

Each structure is given as a SMILES string.

For assay [1], the target named is T1, human TRPV4 (hTRPV4/CHO cells) (Homo sapiens, UniProt Q9HBA0).
T1 construct: expressed in transfected cells; host or cells: CHO-K1
T1 sequence (Q9HBA0 whole entry): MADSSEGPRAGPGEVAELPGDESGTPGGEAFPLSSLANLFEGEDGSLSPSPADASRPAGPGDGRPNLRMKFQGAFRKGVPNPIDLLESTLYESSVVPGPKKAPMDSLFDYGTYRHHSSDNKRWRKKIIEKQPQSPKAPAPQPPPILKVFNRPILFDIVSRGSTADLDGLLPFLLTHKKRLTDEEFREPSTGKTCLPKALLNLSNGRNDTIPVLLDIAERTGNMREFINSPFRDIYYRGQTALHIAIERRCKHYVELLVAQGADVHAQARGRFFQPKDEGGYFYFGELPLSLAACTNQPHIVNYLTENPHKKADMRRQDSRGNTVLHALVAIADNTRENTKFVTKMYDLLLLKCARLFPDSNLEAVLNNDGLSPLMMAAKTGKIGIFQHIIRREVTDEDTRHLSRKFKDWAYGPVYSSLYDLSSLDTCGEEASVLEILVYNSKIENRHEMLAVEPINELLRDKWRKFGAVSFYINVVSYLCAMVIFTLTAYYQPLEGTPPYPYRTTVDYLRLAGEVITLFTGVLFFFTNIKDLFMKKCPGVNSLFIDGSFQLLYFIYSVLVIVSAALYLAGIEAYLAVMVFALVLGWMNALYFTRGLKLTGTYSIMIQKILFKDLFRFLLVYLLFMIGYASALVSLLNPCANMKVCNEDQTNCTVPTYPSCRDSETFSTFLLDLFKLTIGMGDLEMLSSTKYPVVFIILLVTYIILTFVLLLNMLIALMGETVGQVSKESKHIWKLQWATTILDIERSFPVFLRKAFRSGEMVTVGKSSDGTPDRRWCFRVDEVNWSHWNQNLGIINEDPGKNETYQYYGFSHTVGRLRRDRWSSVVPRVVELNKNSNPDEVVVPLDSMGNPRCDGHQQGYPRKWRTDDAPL
Briefly: Test Example 4: TRPV4 inhibitory activity (Ki value), 4α-PDD stimulation, Fluo-3 calcium fluorescence (FDSS 3000). The assay is classed as cell-based. The conditions noted are these: Test Example 4, 4α-PDD stimulation, read-out: Test 4 Ki. The protocol:
TRPV4 Inhibitory Activity (Ki Value)
For each compound, TRPV4 inhibitory activity was measured using cells.
(Method) The procedures of evaluating TRPV4 inhibitory activity of a compound are as follows.
(1) TRPV4 inhibitory activity was measured using CHO-K1 cells stably expressing human TRPV4 (hTRPV4/CHO cells).
(2) Cells were subcultured using the MEM-α medium (SIGMA M4526: 500 ml), FBS (HyCloneSH30070.03: 10%), L-Glutamine 200 mmol/L (GIBCO: 4 mmol/L), P/S (nacalai tesque: 1%), G418 (nacalai tesque: 1 mg/mL).
(3) The 96-well plates which hTRPV4/CHO cells were seeded at densities of 2×10^4 cells/well in the culture medium in the day before the experimental day, and cultured in a CO2 incubator in the presence of 5% CO2 at 37° C. for 24 hours was used as assay plates.
(4) Cells were washed with assay buffer (Hank's Balanced Salt Solution 9.8 g, 1 mol/L HEPES (pH7.5), 250 mmol/L probenecid).
(5) Fluo-3, fluorescent dye for Ca influx assay was added to each well, then the assay plate was incubated in a CO2 incubator in the presence of 5% CO2 at 37° C. for one hour (final conc.; 5 μmol/L Fluo-3).
(6) The assay plate was washed with the assay buffer, and the buffer was remained at 30 μL/well. Then the assay plate was incubated for 10 min at 37° C.
(7) 20 μL of diluted compound solution was added to each well of assay plate, and mixed with built-in Pipette and Mixer of the fluorescence analysis system FDSS 3000 (Hamamatsu Photonics).
(8) 50 μL of 4α-PDD solution (concluding 0.1% Pluronic F-127) was applied to each well of assay plate and mixed.
(9) The fluorescent intensity was measured by FDSS 3000 for 8 min from the point of time addition the compound solution, at Ex 480 nm, Em 540 nm wavelength.
TRPV4 inhibitory activity (Ki value) of a compound was calculated according to the following procedure.
(10) In the presence of the compound, the difference between maximal and minimal of fluorescent intensity value for 8 min from just before addition of 4α-PDD solution was calculated, and it was referred as Max-Min value. Max-Min value of the Ruthenium Red at 10 μM was defined as 100% inhibitory activity, Max-Min value in the absence of the compound was defined as 0% inhibitory activity. TRPV4 inhibitory activity of the compound was calculated by the following formula.
(1−(Max−Min value of the compound−100% inhibitory activity)/(0% inhibitory activity−100% inhibitory activity))×100
(11) By the following formula, inhibitory activity was calculated at 10 points with three fold serial dilution, in the final concentration of the compound from 10 μmol/L to 0.5 nmol/L. The IC50 value was calculated by dose-response curve.
100−[(fluorescent intensity in the presence of the compound−fluorescent intensity of back ground)/(total fluorescent intensity−fluorescent intensity of back ground)]×100
(12) In the presence of the compound, activity of 4α-PDD was measured at 9 points with three fold serial dilution from 20 μmol/L. Activity of 4α-PDD was calculated by the following formula.
(Max−Min value of the each 4α-PDD concentration−0% activity)/(100% activity−0% activity))×100
(13) Effective activity was calculated in 4α-PDD the above. The EC50 value was calculated by dose-response curve.
(14) The Ki value of a compound was calculated by the following formula.
Ki=IC50 value/1+([A]/EC50)
[A]: Concentration of agonist (nmol/L)

Assay [2] deals with T1, human TRPV4 (hTRPV4/CHO cells). As to the kind of experiment: Test Example 1: TRPV4 inhibitory activity (IC50 value), 4α-PDD stimulation, Fluo4 calcium fluorescence (FLIPR TETRA). It counts as cell-based. The conditions noted are these: Test Example 1, 4α-PDD stimulation, read-out: Test 1 IC50.

As for `Cc1nc(C)c(-c2csc(NC(=O)C3(c4ccc(Cl)cc4)CC3)n2)s1` [Compound I-2], the Ki in assay [1] lay in the range of 100 to 1000 nM. Moreover, the concentration for half-maximal inhibition (IC50) in assay [2] was 100 to 1000 nM.
Turning to `Cc1nc(C)c(-c2csc(NC(=O)C(C)(C)c3ccc(Cl)cc3)n2)s1` [Compound I-3], in assay [1], the Ki was in the range of 100 to 1000 nM. Also, the IC50 in assay [2] lay within 100 to 1000 nM.
For `Cc1nc(C)c(-c2csc(NC(=O)C(C)c3ccc(Cl)cc3)n2)s1` (stereo not drawn) [Compound I-4], in assay [1], the inhibitory constant (Ki) is under 100 nM. Also, the IC50 in assay [2] was under 100 nM.
Take `Cc1ncsc1-c1csc(NC(=O)Cc2ccc(Br)cc2)n1` [Compound I-13]: the Ki in assay [1] was 100 to 1000 nM. For the same compound, the IC50 in assay [2] is under 100 nM.
For `Cc1ncc(-c2csc(NC(=O)Cc3ccc(Br)cc3)n2)s1` [Compound I-14], in that order: under 100 nM and under 100 nM.
The corresponding values for `Cc1nc(C)c(-c2csc(NC(=O)Cc3ccc(C(F)(F)F)cc3)n2)s1` [Compound I-19] are under 100 nM and under 100 nM.
For `Cc1nc(C)c(-c2csc(NC(=O)C3CC3)n2)s1` [Compound I-23], in that order: under 100 nM and 100 to 1000 nM.
As for `Cc1nc(C)c(-c2csc(NC(=O)c3ccc(S(=O)(=O)C(F)(F)F)cc3)n2)s1` [Compound I-24], the Ki in assay [1] fell in the range of 100 to 1000 nM. In assay [2], the IC50 is 100 to 1000 nM.
Turning to `Cc1nc(C)c(-c2csc(NC(=O)CC3CCS(=O)(=O)C3)n2)s1` (stereo not drawn) [Compound I-51], the Ki in assay [1] is 1000 to 3000 nM.
On the same count and under the same terms, the same measure for `Cc1nc(C)c(-c2csc(NC(=O)Cc3cc(F)cc(F)c3)n2)s1` [Compound I-52]: under 100 nM; for `Cc1nc(C)c(-c2csc(NC(=O)CC3CCC3)n2)s1` [Compound I-54]: under 100 nM.
`Cc1nc(C)c(-c2csc(NC(=O)Cc3c(F)cccc3F)n2)o1` [Compound I-58]: in assay [1], the inhibitory constant (Ki) is under 100 nM.
`CCCC(=O)Nc1nc(-c2sc(C)nc2C)cs1` [Compound I-219]: the inhibition constant Ki in assay [1] was 100 to 1000 nM.
Same read-out and setting: next, `CCCCCCCCCCCC(=O)Nc1nc(-c2sc(C)nc2C)cs1` [Compound I-220]: 100 to 1000 nM; `CCCCCCCC(=O)Nc1nc(-c2sc(C)nc2C)cs1` [Compound I-221]: under 100 nM.
Consider `CCCCCC(=O)Nc1nc(-c2sc(C)nc2C)cs1` [Compound I-222], for which, in assay [1], the inhibition constant (Ki) is under 100 nM.
On to `Cc1nc(C)c(-c2csc(NC(=O)c3ccc(Cl)cc3)n2)s1` [Compound I-227], for which the inhibition constant Ki in assay [1] was in the range of 100 to 1000 nM.
Same read-out and setting: the same measure for `Cc1nc(C)c(-c2csc(NC(=O)CCc3ccccc3)n2)s1` [Compound I-228]: 100 to 1000 nM; for `Cc1nc(C)c(-c2csc(NC(=O)COc3ccc(Cl)cc3)n2)s1` [Compound I-229]: under 100 nM; for `Cc1nc(C)c(-c2csc(NC(=O)Cc3ccc(Cl)cc3)n2)s1` [Compound I-230]: under 100 nM.
In the case of `Cc1nc(C)c(-c2csc(NC(=O)Cc3ccc(Br)cc3)n2)o1` [Compound I-231], the inhibitory constant (Ki) in assay [1] is 100 to 1000 nM.
On the same count and under the same terms, the same measure for `Cc1nc(C)c(-c2csc(NC(=O)c3ccc(Br)cc3)n2)s1` [Compound I-232]: 100 to 1000 nM; for `Cc1nc(C)c(-c2csc(NC(=O)Nc3ccc(Br)cc3)n2)s1` [Compound I-233]: 1000 to 3000 nM; for `Cc1nc(C)c(-c2csc(NC(=O)c3ccccc3)n2)s1` [Compound I-234]: 1000 to 3000 nM.
As for `O=C(Nc1nc(-c2sc(Cl)nc2Cl)cs1)C1CCC(F)(F)C1` (stereo not drawn) [Compound I-535], the Ki in assay [1] fell in the range of 100 to 1000 nM.
Still for that read-out and setting: next, `CC(=O)c1ccc(Nc2nc(-c3sc(C)nc3C)cs2)cc1` [II-25]: 100 to 1000 nM.
Same read-out and setting: the same measure for `Cc1nc(C)c(-c2csc(Nc3ccc(Cl)cc3)n2)s1` [II-26]: 100 to 1000 nM; for `Cc1nc(C)c(-c2csc(Nc3ccc(F)cc3)n2)s1` [II-27]: 100 to 1000 nM; for `Cc1nc(C)c(-c2csc(Nc3ccc(N(C)C)cc3)n2)s1` [II-28]: 100 to 1000 nM.
Turning to `COc1ccc(Nc2nc(-c3sc(C)nc3C)cs2)cc1` [II-29], the inhibitory constant (Ki) in assay [1] fell in the range of 100 to 1000 nM.
On the same count and under the same terms, next, `Cc1nc(C)c(-c2csc(Nc3ccccc3)n2)s1` [II-30]: 100 to 1000 nM.
